In one experiment the target is T1, human JAK3 (Homo sapiens, UniProt P52333).
T1 construct: The kinase domain of human JAK3 was amplified; GST (N); made in house; host or cells: Sf9 (Spodoptera frugiperda) insect cells, baculovirus
Put plainly: JAK3 kinase enzyme assay (Alphascreen). As to conditions: 80 or 625 um ATP. In kind it is biochemical. The essentials: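 Sf9-expressed GST-tagged human JAK3 kinase domain was pre-incubated 20 min with compound at 5 μM final in HEPES pH 7.5 buffer. Then 60 or 90 min reaction with 80 or 625 μM ATP and biotinylated peptide substrate at 111 or 133 μM. AlphaScreen phosphotyrosine acceptor and streptavidin donor beads, 2–3 h.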

A further experiment concerns BAF3wt. Put plainly: Cellular screening, BaF3 wild-type cells (Alamar Blue). As to conditions: Mus musculus, 40 hr incubation. In kind it is cell-based. The essentials: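 BaF3 wild-type cells grown in DMEM with 10% FCS and 10% WEHI 3B conditioned medium, incubated with compound for 40 h at 37 °C, 5% CO2. Viability read by Alamar Blue after a further 4-6 h, at 544 nm; screening concentration 20 μM in dilution plate.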

The next experiment deals with T2, human JAK2 (Homo sapiens, UniProt O60674).
T2 construct: The kinase domain of human JAK2 was amplified; GST (N); made in house; host or cells: Sf9 (Spodoptera frugiperda) insect cells, baculovirus
T2 sequence (O60674 849-1124 limits assumed): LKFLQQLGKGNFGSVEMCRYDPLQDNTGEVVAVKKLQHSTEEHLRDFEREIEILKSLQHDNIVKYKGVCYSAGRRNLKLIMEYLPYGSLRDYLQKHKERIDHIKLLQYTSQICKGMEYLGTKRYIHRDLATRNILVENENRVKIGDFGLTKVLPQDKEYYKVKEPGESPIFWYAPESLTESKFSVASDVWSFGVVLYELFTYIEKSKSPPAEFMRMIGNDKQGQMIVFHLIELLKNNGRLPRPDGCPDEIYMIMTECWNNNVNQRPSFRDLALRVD
As to the kind of experiment: JAK2 kinase enzyme assay (Alphascreen). In kind it is biochemical. As to conditions: 80 or 625 um ATP. Put shortly:
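Compounds at 5 μM final were pre-incubated 20 min with Sf9-expressed GST-JAK2 kinase domain in HEPES pH 7.5 phosphotyrosine buffer, then incubated 60 or 90 min with 80 or 625 um ATP. Substrate was biotinylated peptide 1 (111 μM final) or peptide 2 (133 μM final). Phosphotyrosine was detected by AlphaScreen acceptor/streptavidin donor beads after 2–3 h.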

Another experiment addresses T3, human JAK1 (Homo sapiens, UniProt P23458).
T3 construct: The kinase domain of human JAK1 was amplified; GST (N); made in house; host or cells: Sf9 (Spodoptera frugiperda) insect cells, baculovirus
As to the kind of experiment: JAK1 kinase enzyme assay (Alphascreen). In kind it is biochemical. As to conditions: 80 or 625 um ATP. On the procedure:
For screening purposes, compounds (in 100% DMSO) were warmed at 37 degrees for at least 20 minutes before use. A […] stock was initially made in assay buffer, where the final concentration of DMSO was 0.3%. The stocks were then diluted in 384 well Optiplates (Packard) where the final concentration of the compound was 5 μM.
The kinase domain of human JAK1 was amplified from U937mRNA using the polymerase chain reaction with the following primers: […]
The JAK1 PCR products were cloned into the pDest20 destination vector (Gibco). The JAK1 plasmid was then transformed into competent DH10Bac cells (Gibco), and the recombinant baculovirus was prepared via Sf9 insect cell transfection.
Baculovirus preparations from each of the JAK family members were infected into one litre of Sf9 (Spodoptera frugiperda) cells (Invitrogen) grown in SF900II serum free medium (Invitrogen) to a cell density of approximately 2×10^6 cells/ml. Cells were infected with virus at a cell culture to virus stock ratio of 20:1. Cells were harvested and lysed 48 hours post infection. The GST-tagged JAK kinase domains were purified by affinity chromatography on a GSH agarose column (Scientifix).
Kinase assays were performed in 384 well Optiplates (Packard) using an Alphascreen Protein Tyrosine KinaseP100 detection kit The compounds were pre-incubated with affinity purified PTK domain in the presence of phosphotyrosine assay buffer (10 mM HEPES, pH 7.5, 100 mM MgCl2, 25 mM NaCl, 200 mM sodium vanadate and 0.1% Tween 20) for 20 minutes. The compounds were then incubated with substrate in the presence of either 80 or 625 um ATP for 60 or 90 minutes. The substrate used was either susbtrate-1 with the sequence biotin-EGPWLEEEEEAYGWMDF-NH2 [SEQ. ID. NO. 13] (final concentration 111 μM) or susbtrate-2 substrate with the sequence biotin-EQEDEPEGDYFEWLEPE (final concentration 133 μM). Alphascreen phosphotyrosine acceptor beads followed by streptavidin donor beads at a concentration of 1/100 in stop buffer were added to each well under subdued light and incubated for 2-3 hours. The Alphascreen plates were read on a Packard Fusion Alpha instrument.

The subject of a further experiment is BafT_J3. Put plainly: Cellular screening, BaF3 TEL:JAK3 cells (Alamar Blue). In kind it is cell-based. As to conditions: Mus musculus, 40 hr incubation. Put shortly:
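Growth-factor-independent BaF3 tet-off cells express a TEL(nt 1–487)/JAK3 kinase-domain fusion and are grown without WEHI 3B medium. Compound plates were prepared at 20 μM and added as 10× final. After 40 h at 37 °C, 5% CO2, Alamar Blue was added for 4–6 h and read at 544 nm.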

The next experiment relates to CTLL2. As to the kind of experiment: Cellular screening, CTLL2 cells (Alamar Blue). In kind it is cell-based. The following applies: Mus musculus, CTLL-2, 40 hr incubation. Put shortly:
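CTLL2 cells in late log phase were incubated with compounds, from screening plates at 20 μM, for 40 hr at 37° C, 5% CO2. Viability was read by Alamar Blue, added for a further 4-6 hours, with the read at 544 nm.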

Another experiment relates to BafT_J2. Put plainly: Cellular screening, BaF3 TEL:JAK2 cells (Alamar Blue). The experiment is classed as cell-based. The following applies: Mus musculus, 40 hr incubation. Put shortly: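 BaF3 cells expressing a TEL–JAK2 kinase-domain fusion, growth-factor independent, were exposed to compounds for 40 hr at 37° C, 5% CO2. Screening concentration was 20 μM in the dilution plate, added as 10× final. Viability read with Alamar Blue after a further 4-6 h, at 544 nm.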

T1 sequence (P52333 822-1111 limits assumed): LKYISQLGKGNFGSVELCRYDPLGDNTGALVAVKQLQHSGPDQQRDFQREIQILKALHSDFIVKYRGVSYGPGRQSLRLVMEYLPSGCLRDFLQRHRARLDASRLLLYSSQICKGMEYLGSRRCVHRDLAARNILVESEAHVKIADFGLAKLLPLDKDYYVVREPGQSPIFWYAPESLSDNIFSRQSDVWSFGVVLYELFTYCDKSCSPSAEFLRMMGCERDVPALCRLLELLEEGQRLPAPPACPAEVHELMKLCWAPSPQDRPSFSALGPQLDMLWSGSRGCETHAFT
T3 sequence (P23458 875-1153 limits assumed): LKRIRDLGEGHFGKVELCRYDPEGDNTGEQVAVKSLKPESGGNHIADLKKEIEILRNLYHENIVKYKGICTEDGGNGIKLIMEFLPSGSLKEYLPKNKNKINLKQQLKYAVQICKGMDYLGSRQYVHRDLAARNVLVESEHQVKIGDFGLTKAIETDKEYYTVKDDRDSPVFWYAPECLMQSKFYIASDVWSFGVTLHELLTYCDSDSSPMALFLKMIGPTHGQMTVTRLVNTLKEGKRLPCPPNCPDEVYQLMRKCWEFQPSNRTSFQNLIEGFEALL

Consider `CS(=O)(=O)N(CC#N)c1cccc(-c2csc3cnc(Nc4ccc(N5CCOCC5)cc4)nc23)c1` [Compound 31, N-(cyanomethyl)-N-(3-(2-(4-morpholinophenylamino)thieno[3,2-d]pyrimidin-7-yl)phenyl)methanesulfonamide], for which the IC50 against human JAK3 was less than 100 nM; in the experiment on BAF3wt, less than 1000 nM; on human JAK2, less than 100 nM; at human JAK1 it was less than 100 nM; in the experiment on BafT_J3, less than 1000 nM; in the experiment with CTLL2, less than 1000 nM. The molecule also yielded an IC50 in the experiment with BafT_J2 of less than 1000 nM.

As for `Cn1cc(-c2ccc(S(N)(=O)=O)cc2)c2nc(Nc3ccc(N4CCOCC4)cc3)ncc21` [Compound 34, 4-(5-methyl-2-(4-morpholinophenylamino)-5H-pyrrolo[3,2-d]pyrimidin-7-yl)benzenesulfonamide], the 50% inhibitory concentration (IC50) on human JAK3 was less than 500 nM; in the experiment with BAF3wt, less than 20000 nM; at human JAK2, less than 100 nM; against human JAK1, less than 100 nM; in the experiment with BafT_J3 (given as number), more than 20000 nM; in the experiment with CTLL2 (given as number) it was more than 20000 nM. Besides, in the experiment on BafT_J2, the IC50 is less than 1000 nM.

On to `CC(C)(C)NS(=O)(=O)c1cccc(-c2csc3cnc(Nc4cccc(N5CCOCC5)c4)nc23)c1` [Compound 47, N-tert-butyl-3-(2-(3-morpholinophenylamino)thieno[3,2-d]pyrimidin-7-yl)benzenesulfonamide], for which the IC50 at human JAK3 was less than 500 nM; in the experiment on BAF3wt, less than 5000 nM; against human JAK2, less than 100 nM; on human JAK1, less than 100 nM; in the experiment with BafT_J3, less than 5000 nM; in the experiment on CTLL2, less than 5000 nM. This molecule also registered an IC50 in the experiment with BafT_J2 of less than 5000 nM.

As for `CC(C)(C)NS(=O)(=O)c1cccc(-c2csc3cnc(Nc4cccc(CO)c4)nc23)c1` [Compound 48, N-tert-butyl-3-(2-(3-(hydroxymethyl)phenylamino)thieno[3,2-d]pyrimidin-7-yl)benzenesulfonamide], the half-inhibitory concentration (IC50) at human JAK3 was less than 500 nM; in the experiment with BAF3wt, less than 1000 nM; on human JAK2, less than 100 nM; against human JAK1, less than 100 nM; with BafT_J3, less than 1000 nM; with CTLL2, less than 1000 nM. The molecule further displayed an IC50 in the experiment with BafT_J2 of less than 1000 nM.

In the case of `COc1cc(Nc2ncc3scc(-c4cccc(S(=O)(=O)NC(C)(C)C)c4)c3n2)cc(OC)c1OC` [Compound 50, N-tert-butyl-3-(2-(3,4,5-trimethoxyphenylamino)thieno[3,2-d]pyrimidin-7-yl)benzenesulfonamide], the IC50 at human JAK3 is less than 500 nM; with BAF3wt, less than 1000 nM; on human JAK2, less than 100 nM; against human JAK1, less than 100 nM; in the experiment with BafT_J3 it was less than 1000 nM; in the experiment on CTLL2 it was less than 1000 nM. Moreover, the IC50 in the experiment with BafT_J2 was less than 1000 nM.

With `COc1ccc(Nc2ncc3scc(-c4cccc(S(=O)(=O)NC(C)(C)C)c4)c3n2)cc1OC` [Compound 53, N-tert-butyl-3-(2-(3,4-dimethoxyphenylamino)thieno[3,2-d]pyrimidin-7-yl)benzenesulfonamide], the 50% inhibitory concentration (IC50) against human JAK3 was less than 500 nM; in the experiment on BAF3wt, less than 1000 nM; at human JAK2, less than 100 nM; against human JAK1 it was less than 100 nM; in the experiment on BafT_J3, less than 1000 nM; in the experiment on CTLL2, less than 5000 nM. This molecule came in with an IC50 with BafT_J2 of less than 1000 nM.

Source of the values: patent US8765755B2, “N-containing heterocyclic compounds” (YM Biosciences Australia Pty Ltd, priority 2007, dated 2014).
